According to ChEMBL document CHEMBL6087451, “Design, Synthesis, and Biological Evaluation of 2-Arylaminopyrimidine Derivatives as Dual Cathepsin L and JAK Inhibitors for the Treatment of Acute Lung Injury” (J Med Chem, 2025):
Activity calls are given as the source filed them. The calls are words filed in the database; no cut-off is given here.

How the values were obtained:
[1] = Half life in Sprague-Dawley rat at 3.5 mg/kg, iv measured for 24 hrs by LC-MS/MS analysis; type: ADME, organism-based; conditions: in vivo
[2] = AUC (0 to t) in Sprague-Dawley rat at 3.5 mg/kg, iv measured for 24 hrs by LC-MS/MS analysis; type: ADME, organism-based; conditions: in vivo
Procathepsin L [3] = target: T1, Procathepsin L (Homo sapiens, UniProt P07711); assay: Induction of thermal stabilization of pro-CTSL in protein lysate extracted from human THP-1 cells pretreated for 6 hrs followed by heat exposure at 37 to 62 degreeC for 3 mins by CETSA; type: subcellular; conditions: time 363.0 min
Target sequence in this assay (P07711 114-333 limits assumed): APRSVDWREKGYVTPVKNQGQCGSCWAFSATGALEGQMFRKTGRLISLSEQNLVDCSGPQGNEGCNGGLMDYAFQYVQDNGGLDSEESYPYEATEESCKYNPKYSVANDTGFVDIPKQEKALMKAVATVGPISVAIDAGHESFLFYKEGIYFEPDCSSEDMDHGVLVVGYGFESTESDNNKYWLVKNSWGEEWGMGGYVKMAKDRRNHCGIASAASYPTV

Mus musculus [4] = assay: (§1) Anti-inflammatory activity in C57BL/6 mouse model of LPS-induced acute lung injury assessed as decrease in pulmonary edema in lung at 10 mg/kg, ip treated for 3 days followed by LPS treatment after 1 hr post-compound administration on fourth day measured after 18 hrs post-LPS treatment by H and E staining based analysis; type: functional, organism-based; conditions: time 91.0 hrs
Mus musculus [5] = assay: (§2) Anti-inflammatory activity in C57BL/6 mouse model of LPS-induced acute lung injury assessed as decrease in wet to dry ratio in lung at 10 mg/kg, ip treated for 3 days followed by LPS treatment after 1 hr post-compound administration on fourth day measured after 18 hrs post-LPS treatment; type: functional, organism-based; conditions: time 91.0 hrs
RAW264.7 [6] = assay: Anti-inflammatory activity against mouse RAW264.7 cells assessed as inhibition of LPS-induced iNOS level by Western blot analysis; type: functional, cell-based; conditions: dose 50-500 nM
Mus musculus [7] = assay: Anti-inflammatory activity in C57BL/6 mouse model of LPS-induced acute lung injury assessed as decrease in total protein concentration in BALF at 10 mg/kg, ip treated for 3 days followed by LPS treatment after 1 hr post-compound administration on fourth day measured after 18 hrs post-LPS treatment; type: functional, organism-based; conditions: time 91.0 hrs
RAW264.7 [8] = assay: Anti-inflammatory activity against mouse RAW264.7 cells assessed as inhibition of LPS-induced IL-1beta level at 50 to 500 nM; type: functional, cell-based; conditions: dose 50-500 nM
[9] = AUC (0 to t) in Sprague-Dawley rat at 3.5 mg/kg, po measured for 24 hrs by LC-MS/MS analysis; type: ADME, organism-based; conditions: in vivo
[10] = Oral bioavailability in Sprague-Dawley rat at 3.5 mg/kg measured for 24 hrs by LC-MS/MS analysis; type: ADME, organism-based; conditions: in vivo
[11] = Anti-inflammatory activity against HBE cells assessed as inhibition of LPS-induced IL-6 level at 5 uM pretreated for 30 mins followed by LPS treatment for 24 hrs by ELISA relative to control; type: functional; conditions: Homo sapiens, time 24.5 hrs
RAW264.7 [12] = assay: Anti-inflammatory activity against mouse RAW264.7 cells assessed as inhibition of LPS-induced IL-6 level
Mus musculus [13] = assay: as §1, with “alveolar hemorrhage” for “pulmonary edema”; type: functional, organism-based; conditions: time 91.0 hrs
RAW264.7 [14] = assay: Anti-inflammatory activity against mouse RAW264.7 cells assessed as inhibition of LPS-induced COX-2 level by Western blot analysis; type: functional, cell-based; conditions: dose 50-500 nM
Mus musculus [15] = assay: as §1, with “disruption of epithelial cell structures” for “pulmonary edema”; type: functional, organism-based; conditions: time 91.0 hrs
RAW264.7 [16] = assay: Cytotoxicity against mouse RAW264.7 cells assessed as cell viability at 0.5 to 5 uM; type: toxicity, cell-based; conditions: raw264.7, 5 µM, dose 0.5-5 µM
Procathepsin L [17] = target: T1, Procathepsin L; assay: Inhibition of recombinant human Cat L using f Z-Phe-Arg-AMC as substrate preincubated for 30 mins followed by substrate addition
Target sequence in this assay (P07711 whole entry): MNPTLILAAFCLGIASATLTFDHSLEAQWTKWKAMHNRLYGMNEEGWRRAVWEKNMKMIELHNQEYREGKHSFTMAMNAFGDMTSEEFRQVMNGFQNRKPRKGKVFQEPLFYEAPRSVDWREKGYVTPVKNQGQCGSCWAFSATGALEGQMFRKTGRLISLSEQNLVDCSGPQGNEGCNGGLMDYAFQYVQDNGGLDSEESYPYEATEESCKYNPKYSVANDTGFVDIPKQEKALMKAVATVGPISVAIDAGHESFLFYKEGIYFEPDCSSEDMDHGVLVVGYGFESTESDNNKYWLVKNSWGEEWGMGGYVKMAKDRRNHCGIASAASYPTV

[18] = AUC (0 to infinity) in Sprague-Dawley rat at 3.5 mg/kg, ip measured for 24 hrs by LC-MS/MS analysis; type: ADME, organism-based; conditions: in vivo
RAW264.7 [19] = assay: Anti-inflammatory activity against mouse RAW264.7 cells assessed as inhibition of LPS-induced IL-1beta mRNA level at 50 to 500 nM by RT-qPCR analysis; type: functional, cell-based; conditions: dose 50-500 nM
Mus musculus [20] = assay: as §2, with “decrease in IL-1beta mRNA level in lung” for “decrease in wet to dry ratio in lung”, “post-LPS treatment by RT-qPCR analysis” for “post-LPS treatment”; type: functional, organism-based; conditions: time 91.0 hrs
[21] = Cmax in Sprague-Dawley rat at 3.5 mg/kg, ip measured for 24 hrs by LC-MS/MS analysis; type: ADME, organism-based; conditions: in vivo
Mus musculus [22] = assay: as §2, with “decrease in IL-6 mRNA level in lung” for “decrease in wet to dry ratio in lung”, “post-LPS treatment by RT-qPCR analysis” for “post-LPS treatment”; type: functional, organism-based; conditions: time 91.0 hrs
[23] = Half life in Sprague-Dawley rat at 3.5 mg/kg, ip measured for 24 hrs by LC-MS/MS analysis; type: ADME, organism-based; conditions: in vivo
[24] = Anti-inflammatory activity against HBE cells assessed as inhibition of LPS-induced IL-8 level at 5 uM pretreated for 30 mins followed by LPS treatment for 24 hrs by ELISA relative to control; type: functional; conditions: Homo sapiens, time 24.5 hrs
cells [25] = conditions: Homo sapiens, HBE
Description: Anti-inflammatory activity against HBE cells assessed as inhibition of LPS-induced IL-8 level pretreated for 30 mins followed by LPS treatment for 24 hrs by ELISA

RAW264.7 [26] = assay: Anti-inflammatory activity against mouse RAW264.7 cells assessed as inhibition of LPS-induced p38 phosphorylation at 50 to 500 nM by Western blot analysis; type: functional, cell-based; conditions: dose 50-500 nM
HBE [27] = assay: Anti-inflammatory activity against HBE cells assessed as inhibition of LPS-induced p-p65 level pretreated for 30 mis followed by LPS treatment for 16 hrs by Western blot analysis; type: functional, cell-based; conditions: Homo sapiens, dose 0.5-5 µM, time 16.5 hrs
[28] = Cmax in Sprague-Dawley rat at 3.5 mg/kg, po measured for 24 hrs by LC-MS/MS analysis; type: ADME, organism-based; conditions: in vivo
Mus musculus [29] = assay: as §1, with “disruption of endothelial cell structures” for “pulmonary edema”; type: functional, organism-based; conditions: time 91.0 hrs
RAW264.7 [30] = assay: Anti-inflammatory activity against mouse RAW264.7 cells assessed as inhibition of LPS-induced IL-6 mRNA level at 50 to 500 nM by RT-qPCR analysis; type: functional, cell-based; conditions: dose 50-500 nM
[31] = Cmax in Sprague-Dawley rat at 3.5 mg/kg, iv measured for 24 hrs by LC-MS/MS analysis; type: ADME, organism-based; conditions: in vivo
[32] = AUC (0 to t) in Sprague-Dawley rat at 3.5 mg/kg, ip measured for 24 hrs by LC-MS/MS analysis; type: ADME, organism-based; conditions: in vivo
cells [33] = conditions: Homo sapiens, HBE; remark: listed apart in the source
Description: Anti-inflammatory activity against HBE cells assessed as inhibition of LPS-induced IL-6 level pretreated for 30 mins followed by LPS treatment for 24 hrs by ELISA

HBE [34] = assay: Anti-inflammatory activity against HBE cells assessed as inhibition of LPS-induced p-Ikappa-Balpha level pretreated for 30 mis followed by LPS treatment for 16 hrs by Western blot analysis; type: functional, cell-based; conditions: Homo sapiens, dose 0.5-5 µM, time 16.5 hrs
RAW264.7 [35] = assay: Anti-inflammatory activity against mouse RAW264.7 cells assessed as inhibition of LPS-induced TNF-alpha mRNA level at 50 to 500 nM by RT-qPCR analysis; type: functional, cell-based; conditions: dose 50-500 nM
Mus musculus [36] = assay: as §1, with “inflammatory cell infiltration” for “pulmonary edema”; type: functional, organism-based; conditions: time 91.0 hrs
RAW264.7 [37] = assay: Anti-inflammatory activity against mouse RAW264.7 cells assessed as inhibition of LPS-induced IL-1beta level
[38] = AUC (0 to infinity) in Sprague-Dawley rat at 3.5 mg/kg, po measured for 24 hrs by LC-MS/MS analysis; type: ADME, organism-based; conditions: in vivo
[39] = Half life in Sprague-Dawley rat at 3.5 mg/kg, po measured for 24 hrs by LC-MS/MS analysis; type: ADME, organism-based; conditions: in vivo
Mus musculus [40] = assay: Anti-inflammatory activity in C57BL/6 mouse model of LPS-induced acute lung injury assessed as decrease in number of total cells in BALF at 10 mg/kg, ip treated for 3 days followed by LPS treatment after 1 hr post-compound administration on fourth day measured after 18 hrs post-LPS treatment; type: functional, organism-based; conditions: time 91.0 hrs
Mus musculus [41] = assay: In vivo inhibition of mature CTSL in lung of C57BL/6 mouse model of LPS-induced acute lung injury at 10 to 20 mg/kg, ip treated for 3 days followed by LPS treatment after 1 hr post-compound administration on fourth day measured after 18 hrs post-LPS treatment by Western blot analysis; type: functional, organism-based; conditions: dose 10-20 mg/kg, time 91.0 hrs
[42] = AUC (0 to infinity) in Sprague-Dawley rat at 3.5 mg/kg, iv measured for 24 hrs by LC-MS/MS analysis; type: ADME, organism-based; conditions: in vivo
Mus musculus [43] = assay: as §2, with “decrease in TNF-alpha mRNA level in lung” for “decrease in wet to dry ratio in lung”, “post-LPS treatment by RT-qPCR analysis” for “post-LPS treatment”; type: functional, organism-based; conditions: time 91.0 hrs
Procathepsin L [44] = target: T1, Procathepsin L; assay: Inhibition of CTSL maturation in HBE cells pretreated for 30 mis followed by LPS treatment for 16 hrs by Western blot analysis; type: cell-based; conditions: dose 0.5-5 µM, time 16.5 hrs
Target sequence in this assay (P07711 114-333 limits assumed): as the sequence (P07711 114-333 limits assumed) above

For `Cc1ccc(Nc2nccc(-c3cn(C)c4ccccc34)n2)cc1N.Cl`, the half-life [1] was 5.06 h, the AUC(0-t) at 24 h [2] was 1630 ng·h/mL and the Activity (Procathepsin L [3]) was “Active”. For the same molecule, the Activity (Mus musculus [4]) was “Active”, the Activity (Mus musculus [5]) was “Active” and the inhibition (RAW264.7 [6]) was “Dose-dependent-effect”. For the same molecule, the Activity (Mus musculus [7]) was “Active”, the inhibition (RAW264.7 [8]) was “Active” and the AUC(0-t) at 24 h [9] was 830 ng·h/mL. It also gave a bioavailability [10] of 51.1%, an inhibition at 5 µM [11] of 69% and an IC50 (RAW264.7 [12]) of 144 nM. The Activity (Mus musculus [13]) was “Active”, the inhibition (RAW264.7 [14]) was “Dose-dependent-effect” and the Activity (Mus musculus [15]) was “Active”. The Activity (RAW264.7 [16]) was “Non-toxic”, the IC50 (Procathepsin L [17]) was 820 nM and the AUC(0-inf) [18] was 1580 ng·h/mL. The inhibition (RAW264.7 [19]) was “Active”, the Activity (Mus musculus [20]) was “Active” and the Cmax [21] was 331 ng/mL. The Activity (Mus musculus [22]) was “Active”, the half-life [23] was 5.19 h and the inhibition at 5 µM [24] was 76%. For the same molecule, the IC50 (cells [25]) was 2080 nM, the inhibition (RAW264.7 [26]) was “Active; Result Indicates Compound Suppresses Mapk Pathway” and the inhibition (HBE [27]) was “Dose-dependent-effect”. For the same molecule, the Cmax [28] was 193 ng/mL, the Activity (Mus musculus [29]) was “Active” and the inhibition (RAW264.7 [30]) was “Active”. For the same molecule, the Cmax [31] was 504 ng/mL, the AUC(0-t) at 24 h [32] was 1510 ng·h/mL and the IC50 (cells [33]) was 1070 nM. The inhibition (HBE [34]) was “Dose-dependent-effect”, the inhibition (RAW264.7 [35]) was “Active” and the Activity (Mus musculus [36]) was “Active”. It also gave an IC50 (RAW264.7 [37]) of 480 nM, an AUC(0-inf) [38] of 1050 ng·h/mL and a half-life [39] of 6.48 h. For the same molecule, the Activity (Mus musculus [40]) was “Active”, the inhibition (Mus musculus [41]) was “Active” and the AUC(0-inf) [42] was 1690 ng·h/mL. The Activity (Mus musculus [43]) was “Active” and the inhibition (Procathepsin L [44]) was “Dose-dependent-effect”.
